Patent publication US20110124574A1, “RESTORATION OF ESTROGEN RECEPTOR-(ALPHA) ACTIVITY” (priority 2008, published 2011)
Where no end group is shown, it is not given here. The star is where a group is joined. For = O=C*

Legend:
Type in all cases: cell-based, human
ERα = experiment: RT-PCR of estrogen responsive genes CATD and EBAG9 after estradiol and tamoxifen; conditions: MDA-MB-231, hormone free media, pretreatment, estradiol plus tamoxifen, at 48 hours
Description: MDA-MB-231 cells were grown in 6 well plates and stimulated with recombinant Wnt-5a (rW5a) or the Wnt-5a derived Foxy-5 peptide (F5), for 24 h or 48 h. The ERα ligand estradiol was added for the final 22 h, and tamoxifen for the final 20 h to a subset of samples. RNA was extracted at the end time point, cDNA synthesized and subjected to RT-PCR for Cathepsin D (CATD), ER-binding fragment associated antigen 9 (EBAG9) and the housekeeping gene, β-actin.
cDNA was synthesized from 1 μg of total RNA using M-MuLV reverse transcriptase (Fermentas) in a MJ Mini Personal Thermal Cycler (Bio-Rad (Hercules Calif.)). All RT-PCR was performed in a designated clean PCR hood. RT-PCR was performed using a master mix containing with 5 μl of 10× buffer, 5 μl of 25 mM MgCl2, 1 μl 10 mM dNTP, 1 μl forward primer, 1 μl reverse primer and 0.2 μl of Taq polymerase (Fermentas (Ontario, Canada)) per sample. For detection of the progesterone receptor (PR), semi nested RT-PCR was performed to increase sensitivity, whereby 10 μl of the initial PCR reaction product was added to a second PCR reaction with a second internal reverse primer. Both A and β isoforms are amplified with these primers.

ERα promoter = experiment: Bisulfite genomic sequencing of the ERα promoter in MDA-MB-231 cells; conditions: 48 hours, rWnt-5a 0.6 μg/ml, Foxy-5 100 μM
Description: MDA-MB-231 cells were grown in normal media and either left untreated, or stimulated with rWnt-5a protein (rWnt-5a, 0.6 μg/ml)) or the Wnt-5a derived Foxy-5 peptide (F5, 100 μM), for 48 hours. MCF-7 cells were grown for the same amount of time, and were left untreated. DNA was extracted from each sample and subjected to bisulfite modification. Bisulfite treated DNA was subjected to bisulfite genomic sequencing (BGS) of the ERα promoter using nested PCR with primers for the ERα promoter region. PCR products were cloned and 10 random clones sequenced. Filled (black) circles represent methylation at a given cytosine, empty (white) circles represent either unmethyllated cytosine or cytosines demethylated following rWnt-5a or Foxy-5 treatment. The numbers represent the position of CpG dinculeotides relative to the transcription start site (+1). The TATA box is located between positions −17 and +13.
DNA was extracted from cells according to standard procedures. 1 μg of DNA was then bisulfite treated using the EpiTect Bisulfite Kit (Qiagen) and amplified via nested PCR with primers for the ERα promoter region. PCR products were cloned using the TOPO TA cloning kit (Invitrogen). 10 random clones were sequenced using an AB13730 DNA analyzer (Applied Biosystems).

cleaved caspase 3 = experiment: Cleaved caspase 3 Western blot after tamoxifen; conditions: MDA-MB-231, stimulation plus tamoxifen, compared with cells treated only with tamoxifen
Description: (§1) MDA-MB-231 cells were grown in 6 well plates and stimulated with recombinant Wnt-5a protein (rW5a) or the Wnt-5a derived Foxy-5 peptide (F5), for 24 or 48 h. Cells were treated with tamoxifen for the final 20 h and their apoptotic responses were measured via different methods. […] Arrows highlight apoptotic cells. Bars represent […]. B: Following treatment with rW5a, F5 and tamoxifen, or tamoxifen alone, cells were lysed and subjected to SDS-PAGE, transferred to nitrocellulose membranes and blotted for cleaved caspase 3. C: Treated cells were assessed for their relative caspase 3 activity using fluorometric spectrophotometry. The graph represents 6 separate experiments. * P<0.01, ** P<0.001. D: MTT assays were also performed on MDA-MB-231 cells treated with rWnt-5a, F5 and tamoxifen, or tamoxifen alone (MDA-MB-231 and MCF-7 cells) to assess cell growth inhibition. The graph represents the average of 6 separate experiments, with standard deviation represented by error bars. ** P<0.01, *** P<0.001.
Cells were lysed in Triton lysis buffer (50 mM Tris (pH7.5), 1% Triton x-100, 140 mM NaCl, 0.5 mM EDTA, 0.5 MgCl2, 10 mM NaF) with the addition of fresh leupeptin (1 μg/ml), Pefabloc (2 mM), aprotinin (20 μg/ml) and Na3VO4 (4 mM). […] Scanning and densitometry was performed using a Bio-Rad (Hercules Calif.) GS-800 densitometer with Quantity One software. […]

Caspase 3 = Caspase 3 activity assay (fluorometric, DEVD-amc); conditions: MDA-MB-231, stimulation plus tamoxifen 1 μM 20 hours; compared to untreated cells or tamoxifen alone
Description: as §1
Caspase 3 activity was determined via fluorescent spectrometry. The fluorogenic peptide DEVD-amc (Upstate Biotech) was used as a substrate. […] Reactions were incubated at 37° C. for 1 h and analysed on a FLUOstar plate reader (BMG Lab technologies). The total protein content of each lysates was measured using the Coomassie Plus Protein Assay and read outs averaged and adjusted accordingly. […]

Row | Molecule | Estradiol induced expression of CATD (ERα) | Estradiol induced expression of EBAG9 (ERα) | methylation of the ERα CpG island (ERα promoter) | levels of cleaved caspase-3 (cleaved caspase 3) | increase of degree of apoptosis (caspase-3 activity) (Caspase 3)
1 | formyl-MDGCEL (For-MDGCEL; listed as Homo sapiens) [Foxy-5] | consistently lost | consistently lost | demethylated | higher levels | three
2 | recombinant Wnt-5a: recombinant Wnt-5a protein (R&D Systems) (protein, UniProt P41221 62-380, looked up) Protein Wnt-5a: IIGAQPLCSQLAGLSQGQKKLCHLYQDHMQYIGEGAKTGIKECQYQFRHRRWNCSTVDNTSVFGRVMQIGSRETAFTYAVSAAGVVNAMSRACREGELSTCGCSRAARPKDLPRDWLWGGCGDNIDYGYRFAKEFVDARERERIHAKGSYESARILMNLHNNEAGRRTVYNLADVACKCHGVSGSCSLKTCWLQLADFRKVGDALKEKYDSAAAMRLNSRGKLVQVNSRFNSPTTQDLVYIDPSPDYCVRNESTGSLGTQGRLCNKTSEGMDGCELMCCGRGYDQFKTVQTERCHCKFHWCCYVKCKKCTEIVDQFVCK | consistently lost | consistently lost | demethylated | higher levels | two
